The record followed here is US20110021541A1, “INHIBITORS OF HUMAN PHOSPHATIDYL-INOSITOL 3-KINASE DELTA” (priority 2007, published 2011).

T1 sequence (O00329 whole entry): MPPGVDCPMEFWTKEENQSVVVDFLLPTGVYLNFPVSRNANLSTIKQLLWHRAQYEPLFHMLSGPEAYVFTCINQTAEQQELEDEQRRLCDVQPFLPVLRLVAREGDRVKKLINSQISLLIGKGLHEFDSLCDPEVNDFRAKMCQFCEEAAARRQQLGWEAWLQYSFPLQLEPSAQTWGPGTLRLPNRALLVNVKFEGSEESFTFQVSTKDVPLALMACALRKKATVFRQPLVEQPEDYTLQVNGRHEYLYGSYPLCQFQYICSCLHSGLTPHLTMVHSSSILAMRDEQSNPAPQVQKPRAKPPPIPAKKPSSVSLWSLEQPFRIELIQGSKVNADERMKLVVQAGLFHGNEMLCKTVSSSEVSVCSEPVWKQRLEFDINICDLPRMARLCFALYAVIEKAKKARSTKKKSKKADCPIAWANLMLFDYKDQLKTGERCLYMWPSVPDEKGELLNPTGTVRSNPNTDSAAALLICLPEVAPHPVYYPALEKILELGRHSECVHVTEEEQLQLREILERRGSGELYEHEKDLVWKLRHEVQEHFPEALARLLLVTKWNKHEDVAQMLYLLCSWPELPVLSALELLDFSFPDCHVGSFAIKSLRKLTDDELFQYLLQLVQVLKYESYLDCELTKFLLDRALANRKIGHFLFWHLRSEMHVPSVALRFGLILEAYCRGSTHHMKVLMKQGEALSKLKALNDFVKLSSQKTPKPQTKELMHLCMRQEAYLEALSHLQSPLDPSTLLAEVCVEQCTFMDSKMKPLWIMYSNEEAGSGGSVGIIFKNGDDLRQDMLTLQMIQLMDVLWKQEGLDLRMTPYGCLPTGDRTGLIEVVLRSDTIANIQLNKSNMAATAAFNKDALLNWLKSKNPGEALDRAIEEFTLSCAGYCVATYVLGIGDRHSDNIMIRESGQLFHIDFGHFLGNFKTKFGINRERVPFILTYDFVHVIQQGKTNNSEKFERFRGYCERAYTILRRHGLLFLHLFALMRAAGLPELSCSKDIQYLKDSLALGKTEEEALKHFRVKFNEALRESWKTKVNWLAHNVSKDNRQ
T1 sequence (P27986 whole entry partner): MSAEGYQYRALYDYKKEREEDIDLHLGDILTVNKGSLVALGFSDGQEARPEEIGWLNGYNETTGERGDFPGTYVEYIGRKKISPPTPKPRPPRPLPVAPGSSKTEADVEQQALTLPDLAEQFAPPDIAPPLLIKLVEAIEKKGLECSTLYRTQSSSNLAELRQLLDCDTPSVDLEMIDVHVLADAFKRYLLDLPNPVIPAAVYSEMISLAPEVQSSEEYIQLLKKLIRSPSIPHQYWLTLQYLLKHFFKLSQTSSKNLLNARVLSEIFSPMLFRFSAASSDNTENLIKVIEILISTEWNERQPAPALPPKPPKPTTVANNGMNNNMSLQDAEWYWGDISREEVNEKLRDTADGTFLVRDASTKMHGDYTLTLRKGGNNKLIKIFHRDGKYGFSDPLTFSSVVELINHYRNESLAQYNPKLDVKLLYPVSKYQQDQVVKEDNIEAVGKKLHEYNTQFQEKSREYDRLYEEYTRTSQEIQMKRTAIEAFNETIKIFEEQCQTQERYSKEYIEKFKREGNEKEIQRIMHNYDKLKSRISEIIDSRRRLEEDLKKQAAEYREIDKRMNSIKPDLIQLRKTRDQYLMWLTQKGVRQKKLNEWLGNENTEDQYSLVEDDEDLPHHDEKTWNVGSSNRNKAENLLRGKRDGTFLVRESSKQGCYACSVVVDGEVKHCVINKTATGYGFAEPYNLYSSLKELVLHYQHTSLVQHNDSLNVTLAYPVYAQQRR

The first experiment has as its target T1, PI3Kδ (Homo sapiens, UniProt O00329).
T1 construct: FLAG; His tag (vector pFastbac HTb); made in house; host or cells: Sf21 insect cells (baculovirus, BAC-TO-BAC HT)
Nature of the experiment: PI3Kδ biochemical assay (HTS and selectivity assay protocol, [32P]ATP / PIP2 liposomes). To be noted: Table 1, in vitro activity data for selected compounds; read-out: In Vitro I-50. On the procedure: The 3× substrate for the HTS contained 0.6 mM Na2ATP, 0.10 mCi/mL γ-[^32P]ATP (NEN, Pittsburgh, Pa.), 6 μM PIP2/PS liposomes (Avanti Polar Lipids, Inc., […].), in 20 mM HEPES, pH 7.4.
Subsequent selectivity assays were done similarly using the same 3× substrate stocks except they contained 0.05 mCi/mL γ[^32P]ATP and 3 mM PIP2. Subsequent selectivity assays also used the same 3× enzyme stocks, except they now contained 3 nM of any given PI3K isoform.
For all selectivity assays, the test compounds were weighed out and dissolved into 10-50 mM stocks in 100% DMSO (depending on their respective solubilities) and stored at −20° C. Compounds were thawed (to room temperature or 37° C.), diluted to 300 μM in water from which a 3-fold dilution series into water was done. From these dilutions, 20 μL was added into the assay wells alongside water blanks used for the enzyme (positive) control and the no enzyme (background) control.
Consider `CC(c1nc2c(c(Br)nn2C)c(=O)n1-c1ccccc1)n1cnc2c(N)ncnc21` (stereo not drawn) [Compound 1, 6-[1-(6-Amino-purin-9-yl)-ethyl]-3-bromo-1-methyl-5-phenyl-1,5-dihydro-pyrazolo[3,4-d]pyrimidin-4-one], for which the IC50 amounted to 665 nM.

Regarding `CC(Sc1ncnc2[nH]cnc12)c1nc2c(c(Br)nn2C)c(=O)n1-c1ccccc1` (stereo not drawn) [Compound 2, 3-Bromo-1-methyl-5-phenyl-6-[1-(9H-purin-6-ylsulfanyl)-ethyl]-1,5-dihydro-pyrazolo[3,4-d]pyrimidin-4-one], the IC50 worked out at 6000 nM.

Consider `Cc1noc2nc(CSc3ncnc4[nH]cnc34)n(-c3ccccc3)c(=O)c12` [Compound 4, 3-Methyl-5-phenyl-6-(9H-purin-6-ylsulfanylmethyl)-5H-isoxazolo[5,4-d]pyrimidin-4-one], for which the IC50 turned out to be 1200 nM.

As to `Cc1noc2nc(Cn3cnc4c(N)ncnc43)n(-c3ccccc3)c(=O)c12` [Compound 5, 6-(6-Amino-purin-9-ylmethyl)-3-methyl-5-phenyl-5H-is oxazolo[5,4-d]pyrimidin-4-one], the IC50 was found to be 6400 nM.

Turning to `CC(c1nc2cccnc2c(=O)n1-c1ccccc1)n1cnc2c(N)ncnc21` (stereo not drawn) [Compound 11], the IC50 came out at 665 nM.

The next experiment relates to basophils. The experiment in a line: Basophil histamine release assay. In kind it is cell-based. The conditions noted are these: highest concentration (10,000 nM). On the procedure: Assessment of the effect of a compound of the invention on basophil function is tested using a conventional histamine release assay, generally in accordance with the method described in Miura et al., J Immunol, 162:4198-206 (1999). Briefly, enriched basophils are preincubated with test compounds at several concentrations from 0.1 nM to 1,000 nM for 10 min at 37° C. Then, polyclonal goat antihuman IgE (0.1 μg/mL) or fMLP is added, and allowed to incubate for an additional 30 min Histamine released into the supernatant is measured using an automated fluorometric technique.
By inhibition is commonly meant how much of the control response was suppressed. On to `O=c1cc(N2CCOCC2)oc2c(-c3ccccc3)cccc12` [LY294002], for which the inhibition at 10 µM is around 100%.
